Residues, ends and D or L forms follow the SMILES beside them. *: point of attachment. Cbz = O=C(OCc1ccccc1)*
Experiments:
[1] = tested on: JAK1 phosphorylation in 293T cells; assay: JAK1 phosphorylation in 293T cells co-expressing JAK1 and CIS; assay type: cell-based, human; conditions: pre-incubation of 293T cells, 10 μM for 4 h
Method: (a) Isothermal calorimetry (ITC) was used to measure the affinity of hCIS-SH2-BC binding to phosphopeptides corresponding to tyrosines within the JAK1/3 kinase domain activation loops and IL-2Rβ cytoplasmic domains. Tabular view of the results, showing mean±S.D. from two independent experiments. N.D.=Not detectable, p=phosphorylated. […] In some instances, cells were treated with the proteasome inhibitor, MG132. […] Protein expression levels are shown by anti-FLAG blots of whole cell lysates (lower panels). […] Protein levels are shown in the lower panels by anti-FLAG blot of cell lysates. (e) Using a cell-free system, FLAG-JAK1 was incubated with (+) and without (−) the CIS-E3 ligase complex (CIS-SH2-BC with Cullin5 and Rbx2), together with ubiquitin, E1 and E2 enzymes at 37° C. for the times indicated. JAK1 ubiquitination was visualised by Western blotting with antibodies to […]. […] Data were normalised to no-CIS controls. […] See also FIG. 9.
Lysates were clarified by centrifugation at 16,060×g for 15 min at 4° C. Protein concentrations were determined by the BCA method (Pierce, Rockford). […] In some instances, cells were pre-treated with 10 μM MG132 for 4 h to block proteasomal degradation. 48 h post-transfection cells were lysed in KALB buffer (Nicholson et al., 1995). FLAG proteins were immunoprecipitated using M2-beads (Sigma) and proteins eluted in SDS sample buffer. […]

primary human NK cells = assay: Immunoblot of IL-15 treated primary human NK cells; assay type: cell-based; conditions: 2 h with IL-15, 10 μM
Method: Patient-derived human NK cells (a) or NK lymphoma cell lines (b) SNK-10, (c) NKL and NK6, (d) NK-92 were washed free of cytokine and rested for 4 h (a) or 16 h (b-d) prior to treatment with IL-15 for the indicated times. In some instances, cells were incubated with the proteasomal inhibitor MG132 (10 μM). Cells were lysed and analysed by immunoblotting with antibodies to the indicated phosphorylated (p) and total proteins.

wild-type NK cells = assay: JAK1 phosphorylation in IL-15 stimulated wild-type NK cells; assay type: cell-based, mouse; conditions: IL-15 50 ng/ml
Method: (a) Cultured NK cells from wild-type and Cish^−/− mice were lysed, mRNA purified and analysed by RNAseq. Mean RPKM values for duplicate samples (left panel). JAK1 mRNA levels were analysed by Q-PCR (right panel). Mean±S.D., n=3. (b) 4-12% Coomassie-stained SDS-PAGE gel showing purified hCIS-SH2-BC complex, elongin B and elongin C. (c) Isothermal calorimetry (ITC) was used to measure the affinity of hCIS-SH2-BC binding to phosphopeptides corresponding to tyrosines within the JAK1/3 kinase domain activation loops and IL-2Rβ and γ cytoplasmic domains. […] were titrated into a 30 μM solution of the GST-CIS-SH2-BC ternary complex. ITC titration curves and tabular view of some results (inset) showing mean±S.D. from two independent experiments. N.D.=Not detectable, p=phosphorylated. The titration curves all fitted well to a single-site model. (d) Cultured wild-type NK cells were washed and starved of IL-15 for 4 h, with and without addition of the proteasomal inhibitor, MG132. Cells were then stimulated with 50 ng ml^−1 IL-15 for the indicated times, prior to cell lysis and Western blotting with antibodies to the indicated proteins. […]
Lysates were clarified by centrifugation at 16,060×g for 15 min at 4° C. Protein concentrations were determined by the BCA method (Pierce, Rockford). […]

LWT1 melanoma cells = assay: LWT1 experimental lung metastasis; assay type: in vivo, mouse; conditions: Cish−/− mice, 7.5×10^5 cells i.v., day 14
Method: Mice were monitored for tumor development and were euthanized at the point of abdominal swelling and discomfort. Improved survival between groups was assessed by the Log-rank Mantel-Cox test. (D) Groups of 5-15 B6.WT (Cish^+/+) or B6.Cish^-/- mice were injected i.v. with 5×10^5 RM-1 prostate carcinoma cells and treated with either cIg, anti-CD96, anti-PD-1, anti-CTLA-4 or anti-PD1/anti-CTLA-4 combination (250 μg i.p. each on days 0 and 3). (E) Groups of 8-10 B6.WT (Cish^+1 or B6.Cish^-/- mice were injected i.v. with 7.5×10^5 B16F10 melanoma cells and treated with either 250 μg cIg or anti-CD96 mAb (i.p. on days 0 and 3). (F) Groups of 5-6 B6.WT (Cish^+1 or B6.Cish^-/- mice were injected i.v. with 7.5×10^5 LWT1 melanoma cells and treated with either vehicle or PLX4720 (10 mg/kg i.p., daily from day 0 to 6). Lungs were harvested on (A, D, F) day 14 or (B, E) day 13 and macrometastases counted. Individual mice are shown by each symbol and the results are plotted as mean±SEM. Statistically significant differences as indicated were determined by one-way ANOVA with Tukey post-test (for multiple comparisons) (*: […]; **: p<0.01; ***: p<0.001; ****: p<0.0001). […] Lungs were harvested on day 14 and macrometastases counted. […] Lungs were harvested on day 14 and either fixed in Bouin's solution and B16F10 metastases counted^44 or analysed for NK cell expansion by flow cytometry. […]

CIS = target: T1, CIS (Homo sapiens, UniProt Q9NSE2, DEL174-202); assay: Kinase inhibition assay with competitor of CIS-SH2 binding; assay type: biochemical; conditions: for Effect on CIS-mediated inhibition of JAK1 JH1: CIS-SH2-BC, excess JAK1-Y1034 phosphopeptide as competitor
T1 construct: fragment: residues 66-258 with a deletion of; GST (N); made in house; host or cells: E. coli BL21(DE3)
Method: (a) Cultured NK cells from wild-type and Cish^−/− mice were lysed, mRNA purified and analysed by RNAseq. Mean RPKM values for duplicate samples (left panel). JAK1 mRNA levels were analysed by Q-PCR (right panel). Mean±S.D., n=3. (b) 4-12% Coomassie-stained SDS-PAGE gel showing purified hCIS-SH2-BC complex, elongin B and elongin C. (c) Isothermal calorimetry (ITC) was used to measure the affinity of hCIS-SH2-BC binding to phosphopeptides corresponding to tyrosines within the JAK1/3 kinase domain activation loops and IL-2Rβ and γ cytoplasmic domains. […] were titrated into a 30 μM solution of the GST-CIS-SH2-BC ternary complex. ITC titration curves and tabular view of some results (inset) showing mean±S.D. from two independent experiments. N.D.=Not detectable, p=phosphorylated. The titration curves all fitted well to a single-site model. (d) Cultured wild-type NK cells were washed and starved of IL-15 for 4 h, with and without addition of the proteasomal inhibitor, MG132. Cells were then stimulated with 50 ng ml^−1 IL-15 for the indicated times, prior to cell lysis and Western blotting with antibodies to the indicated proteins. (e) Kinase inhibition assays were performed with the kinase domain (JH1) of JAK1 in the presence of CIS-SH2-BC with and without excess JAK1-Y1034 phosphopeptide as a competitor. […] Data were normalised to no-CIS controls.
(c) Alternatively, 50 μM JAK1-Y1034 or JAK3-Y980,Y981 phosphopeptides were used as competitor. Data were normalised to no-CIS controls. All CIS constructs contained the SOCS box and were expressed and purified as a trimeric complex consisting of CIS, elongin B and elongin C.
Kinase inhibition assays were performed essentially as described (Babon et al., 2012). Briefly, 130 μM STAT5b peptide (SEQ ID NO:18 […]) was incubated with 5 nM JAK1 at 25° C. for 30-60 min in 20 mM Tris pH 8.0, 100 mM NaCl, 5 mM 2-mercaptoethanol, 0.2 mg ml^−1 bovine serum albumin, 2 mM MgCl2, 100 μM ATP and 1 mCi γ-[32P]ATP. Recombinant CIS-SH2-BC was present at concentrations ranging from 0-30 μM. After incubation, the reaction was spotted onto P81 phosphocellulose paper and quenched in 5% H3PO4. The paper was washed (4×200 ml, 15 min) with 5% H3PO4 and exposed to a phosphorimager plate (Fuji). Quantitation was performed using Fuji software and IC50 curves calculated using Graphpad Prism.

[2] = tested on: advanced malignant melanoma; conditions: patients; cited from earlier work
[3] = target: T2, JAK3 phosphopeptide (JAK3-Y980,Y981) (Homo sapiens, UniProt P52333); assay: ITC, CIS constructs binding to JAK3 phosphopeptide; conditions: CIS constructs with elongins B and C
T2 construct: purchased Genscript
Method: 300 μM phosphopeptides were titrated into a 30 μM solution of the GST-CIS-SH2-BC ternary complex. ITC titration curves are shown. The titration curves all fitted well to a single-site model.
Isothermal calorimetric titrations were performed with a Microcal ITC200 (GE Healthcare). Phosphopeptides were obtained from Genscript. An optimised GST-CIS protein construct was prepared in which the internal PEST region ([…]) was deleted. The resulting ternary GST-CIS-SH2-SB complexes were dialysed against buffer (20 mM Tris pH 8.0, 100 mM NaCl, 2 mM 2-mercaptoethanol). Experiments were performed at 298 K unless stated otherwise. Typically, 12×3.15 μl injections of 300 μM phosphopeptides were titrated into a 30 μM solution of the GST-CIS-SH2-SB ternary complex. The heat of dilution of GST-CIS-SH2-BC was subtracted from the raw data of the binding experiment. Data were analysed using the evaluation software, Microcal Origin version 5.0. The binding curve fitted a single-site binding mode and all KD values were determined from duplicate experiments.

Molecule: CC(C)C[C@@H](C=O)NC(=O)[C@H](CC(C)C)NC(=O)[C@H](CC(C)C)NC(=O)OCc1ccccc1 [MG132] (Cbz-Leu-Leu-Leu-aldehyde)
- Effect on CIS-mediated regulation of JAK1 phosphorylation [1]: reduced CIS-mediated regulation of JAK1 phosphorylation
- JAK1 phosphorylation (primary human NK cells): remained reduced
- Total JAK1 and CIS levels (primary human NK cells): increase total JAK1 and CIS levels
- Phosphorylation of endogenous JAK1 (wild-type NK cells): increase in phosphorylation of endogenous JAK1

Molecule: CCCS(=O)(=O)Nc1ccc(F)c(C(=O)c2c[nH]c3ncc(Cl)cc23)c1F [PLX4720]
- LWT1 lung metastasis (LWT1 melanoma cells): further reduced

Molecule: O=P(O)(O)Oc1ccccc1 [phenyl phosphate, reference compound]
- Effect on CIS inhibition of JAK1 kinase activity (CIS; excess phenyl phosphate as competitor, all CIS constructs): abrogated the ability of all CIS constructs to inhibit JAK1 kinase activity

Molecule: Ipilimumab: antibody-based therapy that targets CTLA-4
- Tumour responses [2]: 10-12%

Molecule: JAK1-Y1034: phosphopeptide corresponding to a singly-phosphorylated JAK1 activation loop (Tyr1034)
- Effect on CIS inhibition of JAK1 kinase activity (CIS; 50 μM free phosphopeptide as competitor): dramatically reduced the ability of CIS to inhibit JAK1 kinase activity
- Effect on CIS-mediated inhibition of JAK1 JH1 (CIS; listed as JAK1 activation loop peptide): only partial reduction of inhibition
- Effect on CIS-mediated inhibition of JAK1 JH1 (CIS; listed as pY1034 peptide): partially reduced CIS-mediated inhibition

Molecule: full-length CIS: human full-length CIS protein expressed with elongins B and C as trimeric complex
- Binding affinity (ITC) to JAK3 phosphopeptide [3]: comparable affinity

From US11104735B2, “Inhibition of cytokine-induced SH2 protein in NK cells” (The Walter and Eliza Hall Institute of Medical Research, priority 2015, dated 2021)
